In brackets after ≈: the same amount, converted by molar mass.
Columns and labels:
[1] = test system: non-malignant haematological disorder bone marrow cells; test: MTS assay, primary culture of bone marrow cells; assay type: cell-based, human; design: toxicity to bone marrow cells: dose or concentration left out as unconfirmed
Text: (§1) Non-malignant hematological disorder bone marrow cells may be collected by a bone marrow aspirate method from consented patients from clinical wards of Prince of Wales Hospital (Hong Kong, China), according to the regulation of the Hospital. Immediately after collection, mononuclear cells may be enriched by Ficoll Plaque (available from General Electricity) gradient centrifugation. Cells may be washed twice by phosphate buffered saline and resuspended in complete medium. Viable cell percentage may then be estimated by trypan blue exclusion assay and counted using a haemacytometer.
The effect of the synthesized cantharimides on the growth of the cell lines described above was investigated in vitro using a standard MTS ([3-(4,5-dimethylthiazol-2-yl)-5-(3-carboxymethoxyphen-yl)-2-(4-sulfophenyl)-2H-tetrazolium]) assay. Changes in the cellular viability of cell that include Hep3B and SKHep-1 with cantharidin analogues were monitored using the MTS activity assay. In particular, 1×10^4 hepatoma carcinoma cells (SK-Hep-1) were seeded at day 0. For the MTS assay, the medium was changed after 24 hours, and various compounds were then added at different concentrations. For bone marrow cells, compounds were added at the same day as the seeding. […] Subsequently, optical absorbance was determined at 490 nm using an optical absorbance detector (available from Promega).

KG1a AML cell line = test: Morphology assay, KG1a AML cell line; assay type: cell-based; design: dose or concentration left out as unconfirmed; conditions: 48 hours incubation
Text: (§2) An acute myelogenous leukaemia (AML) cell line (KG1a) and a hepatocellular carcinoma (HCC) cell line (Hep3B) may be obtained from American Type of Culture Collection (ATCC). The AML cell line may be maintained in RPMI 1640 (JRH Biosciences) supplemented with 10% of heat inactivated fetal bovine serum (Hyclone), together with antibiotics including penicillin and streptomycin. The Hep3B HCC cell line may be maintained in DMEM with 10% of heat inactivated fetal bovine serum (Hyclone), together with antibiotics including penicillin and streptomycin. Cells may be allowed to grow in a humidified cell culture incubator kept at 5% carbon dioxide.
(§3) The morphological effect of cytotoxic action of cantharidic acid and cantharimide on leukemia cells are depicted in FIGS. 1A to 1F. The untreated non-malignant haematological disorder bone marrow and KG1a AML cell lines are depicted in FIGS. 1A and 1D, respectively. The non-malignant haematological disorder bone marrow and KG1a AML cell lines treated with 5 µg/mL of dicantharidic acid are depicted in FIGS. 1B and 1E, respectively. The non-malignant haematological disorder bone marrow and KG1a AML cell lines treated with 5 µg/mL of cantharimide are depicted in FIGS. 1C and 1F, respectively.

[2] = test system: non-malignant haematological disorder bone marrow; test: Morphology assay, bone marrow; assay type: cell-based, human; conditions: 48 hours incubation
Text: as §1
The toxicity on non-malignant haematological bone marrow sample was tested to evaluate the side effects of cantharidin, which included bone marrow suppression, and gastrointestinal and urinary tract toxicity.
as §3

leukemia cell line KG1a = test: MTS assay, leukemia cell line KG1a; assay type: cell-based; conditions: for IC50: Homo sapiens, KG-1a, concentration necessary for 50% of MTS reduction ability vs control, read-out: MTS50 activity
Text: as §2
(§4) The effect of the synthesized cantharimides on the growth of the cell lines described above was investigated in vitro using a standard MTS ([3-(4,5-dimethylthiazol-2-yl)-5-(3-carboxymethoxyphen-yl)-2-(4-sulfophenyl)-2H-tetrazolium]) assay. Changes in the cellular viability of cell that include Hep3B and SKHep-1 with cantharidin analogues were monitored using the MTS activity assay. In particular, 1×10^4 hepatoma carcinoma cells (SK-Hep-1) were seeded at day 0. For the MTS assay, the medium was changed after 24 hours, and various compounds were then added at different concentrations. For bone marrow cells, compounds were added at the same day as the seeding. After 48 hours of incubation, the medium was removed, and MTS/PMS solution was added. The added medium was incubated for exactly 30 minutes. Subsequently, optical absorbance was determined at 490 nm using an optical absorbance detector (available from Promega).
The cytotoxic activity of cantharimide of formula (3) using a leukemia cell line KG1a was investigated by means of a MTS assay. The MTS50 activity was measured as the concentration necessary for 50% of MTS reduction ability by the chemical treated cell as compared with the control. […] On the other hand, cantharimide gave a value of about 5 µg/ml for MTS50 activity against the same cancer cell line.

Solubility = assay type: physicochemical
Hep3B = test: MTS assay, Hep3B cell growth; assay type: cell-based; conditions: Homo sapiens, 48 hours of incubation
Text: as §2, §4
More than 30 cantharimides were screened for their effects on cell proliferation and potential cytotoxicity in the two cell lines of Hep3B and SKHep-1. The activities of cantharimide were monitored in the presence of dicantharidic (a commercially available cantharidin-mimic) as a reference control.

Compound | Solubility in water (Solubility) | IC50 (Hep3B) | also measured
CC1(C(=O)O)C2CCC(O2)C1(C)C(=O)O (stereo not shown) [dicantharidic acid, reference compound] |  |  | toxicity to bone marrow cells ([1]; concentration down to 0.15625, 48 hours of incubation): extremely toxic; morphological effect on leukemia cells (KG1a AML cell line): induced loss of colony formation potential and cell shrinkage; morphological effect on bone marrow cells [2]: induced a similar loss; IC50 (leukemia cell line KG1a): ~0.5 µg/mL (≈ 2.33 µM); activity to the cancer cell line compared to cantharimide (leukemia cell line KG1a; MTS50): 10 fold
COC(=O)c1ccc2nc(N3C(=O)[C@@]4(C)[C@@H]5CC[C@@H](O5)[C@@]4(C)C3=O)sc2c1 [Entry 8] | Good |  | 
C[C@@]12C(=O)N(c3nc4ccc(C(=O)O)cc4s3)C(=O)[C@]1(C)[C@H]1CC[C@@H]2O1 [Entry 7] | Good | ~5 µg/mL (≈ 13.4 µM) | solubility (Solubility; DMSO, organic solvent or mixture): 250 mg/mL (≈ 671000 µM); cytotoxic activity to normal bone marrow cells [1]: lack of cytotoxic activity; morphological effect on leukemia cells (KG1a AML cell line): induced loss of colony formation potential and cell shrinkage; morphological effect on bone marrow cells [2]: colony formation remained unchanged; IC50 (leukemia cell line KG1a): ~5 µg/mL (≈ 13.4 µM)
C[C@@]12C(=O)N(c3nc4ccccc4s3)C(=O)[C@]1(C)[C@H]1CC[C@@H]2O1 [Entry 1] | Poor | ~6 µg/mL (≈ 18.3 µM) | 
C[C@@]12C(=O)N(c3nc4ccc(OC(F)(F)F)cc4s3)C(=O)[C@]1(C)[C@H]1CC[C@@H]2O1 [Entry 4] | Fair | ~10 µg/mL (≈ 24.2 µM) | 
C[C@@]12C(=O)N(c3nc4ccc(F)cc4s3)C(=O)[C@]1(C)[C@H]1CC[C@@H]2O1 [Entry 6] | Poor | ~5 µg/mL (≈ 14.4 µM) | 
COc1ccc2nc(N3C(=O)[C@@]4(C)[C@@H]5CC[C@@H](O5)[C@@]4(C)C3=O)sc2c1 [Entry 3] | Poor | ~5 µg/mL (≈ 14 µM) | 
C[C@@]12C(=O)N(c3nc4ccc(C(F)(F)F)cc4s3)C(=O)[C@]1(C)[C@H]1CC[C@@H]2O1 [Entry 5] | Fair | ~5 µg/mL (≈ 12.6 µM) | 
CCCCOC(=O)c1ccc2nc(N3C(=O)[C@@]4(C)[C@@H]5CC[C@@H](O5)[C@@]4(C)C3=O)sc2c1 [Entry 9] | Good |  | 
Cc1ccc2nc(N3C(=O)[C@@]4(C)[C@@H]5CC[C@@H](O5)[C@@]4(C)C3=O)sc2c1 [Entry 2] | Poor | ~20 µg/mL (≈ 58.4 µM) | 
C[C@]1(C(=O)O)[C@@H]2CC[C@@H](O2)[C@@]1(C)C(=O)O [Entry 11, reference compound] | Excellent | ~0.25 µg/mL (≈ 1.17 µM) | 

Source: patent US8344007B2, “Water-soluble polymer-based cantharimides as potentially selective anti-tumor agents” (priority 2009, dated 2013)
